In US10077248B2, “Form of imazapyr, a process for its preparation and use the same” (priority 2015, dated 2018):

Type: physicochemical
Experimental: Samples prepared in Examples 4, and 5 were stored at 54° C. for 1 month, 3 months and 6 months. The procedures are followed according to CIPAC MT 46.3. The concentration of imazapyr was tested at the end of each storage time by high pressure liquid chromatography (HPLC). The aggregation was measured by observation. The original concentration of imazapyr in each formulation was 25%.

Structure (SMILES)	storage stability / tendency of aggregation (in words)
CC(C)C1(C)N=C(c2ncccc2C(=O)O)NC1=O (racemic) [imazapyr in amorphous state, 2-[(RS)-4-isopropyl-4-methyl-5-oxo-2-imidazolin-2-yl]nicotinic acid]	high tendency of aggregation after a long storage time
CC(C)C1(C)N=C(c2ncccc2C(=O)O)NC1=O (racemic) [crystalline modification I of imazapyr, 2-[(RS)-4-isopropyl-4-methyl-5-oxo-2-imidazolin-2-yl]nicotinic acid]	significant increase in its storage stability
